{"source": "patent US20220378923A1", "about": "“BET DEGRADER” (KYOWA KIRIN CO., LTD., priority 2019, published 2022)", "system": "DCAF16 KO SU-DHL-4 cells", "assay": "Inhibitory effect on cell viability using SU-DHL-4 DCAF16 knock out (KO) cell line (Test Example 6)", "type": "cell-based, human", "conditions": "for Activity Attenuation Ratio: (SU-DHL-4 DCAF16 KO IC50)/(SU-DHL-4 WT IC50); for IC50: DCAF16 KO SU-DHL-4 cells, 72 hours, Cell Counting Kit-8, 50% inhibition of cell viability", "outline": "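SU-DHL-4 DLBCL cells carrying lentiviral Cas9 plus DCAF16-targeting sgRNA (three KO strains; non-targeting control strain), seeded 2000 cells/well, pre-cultured 18–25 h, then given 9-step compound dilutions (0.1% DMSO final) for 72 h at 37° C. Viability read by CCK-8 colorimetric assay.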", "data": [{"compound": "CCC(=O)N1c2ccccc2[C@H](NCCCCCCCC(=O)Nc2ccc(N[C@@H]3C[C@H](C)N(C(=O)CC)c4ccccc43)cc2)C[C@@H]1C", "note": "(relative stereo) [Compound 12h, 8-(((2S*,4R*)-2-Methyl-1-propionyl-1,2,3,4-tetrahydroquinolin-4-yl)amino)-N-(4-(((2S,4R)-2-methyl-1-propionyl-1,2,3,4-tetrahydroquinolin-4-yl)amino)phenyl)octanamide]", "values": [{"measurement": "Activity Attenuation Ratio", "result": 191}, {"measurement": "IC50", "setting": "Homo sapiens", "result": 0.595, "unit": "µM"}]}, {"compound": "CCC(=O)N1c2ccccc2[C@H](Nc2ccc(NC(=O)CCCC(=O)Nc3ccc(C(=O)N4CCC(=O)Nc5ccccc54)cc3)cc2)C[C@@H]1C", "note": "[Compound 16o, N^1-(4-(((2S,4R)-2-Methyl-1-propionyl-1,2,3,4-tetrahydroquinolin-4-yl)amino)phenyl)-N5-(4-(4-oxo-2,3,4,5-tetra hydro-1H-benzo[b][1,4]diazepine-1-carbonyl)phenyl)glutaramide]", "values": [{"measurement": "Activity Attenuation Ratio", "result": 96}, {"measurement": "IC50", "setting": "Homo sapiens", "result": 2.4, "unit": "µM"}]}, {"compound": "CCC(=O)N1c2ccccc2[C@H](Nc2ccc(NC(=O)N3CCN(C(=O)c4ccc(N[C@@H]5C[C@H](C)N(C(=O)CC)c6ccccc65)cc4)CC3)cc2)C[C@@H]1C", "note": "(relative stereo) [Compound 6m, 4-(4-(((2S,4R)-2-Methyl-1-propionyl-1,2,3,4-tetrahydroquinolin-4-yl)amino)benzoyl)-N-(4-(((2S*,4R*)-2-methyl-1-propionyl-1,2,3,4-tetrahydroquinolin-4-yl)amino)phenyl)piperazine-1-carboxamide]", "values": [{"measurement": "Activity Attenuation Ratio", "result": 1164}, {"measurement": "IC50", "setting": "Homo sapiens", "result": 0.0903, "unit": "µM"}]}, {"compound": "Cc1sc2c(c1C)C(c1ccc(NC(=O)C#CCNC(=O)c3ccc(C4=NCc5nnc(C)n5-c5sc(C)c(C)c54)cc3)cc1)=NCc1nnc(C)n1-2", "note": "[Compound 14e, N-(4-Oxo-4-((4-(2,3,9-trimethyl-6H-thieno[3,2-f][1,2,4]triazolo[4,3-a][1,4]diazepin-4-yl)phenyl)amino)but-2-yn-1-yl)-4-(2,3,9-trimethyl-6H-thieno[3,2-f][1,2,4]triazolo[4,3-a][1,4]diazepin-4-yl)benzamide]", "values": [{"measurement": "Activity Attenuation Ratio", "result": 332}, {"measurement": "IC50", "setting": "Homo sapiens", "result": 0.0683, "unit": "µM"}]}, {"compound": "CCC(=O)N1c2ccccc2[C@H](Nc2ccc(C(=O)NCCCNC(=O)c3ccc(C4=N[C@@H](CC(=O)OCCCOC)c5nnc(C)n5-c5sc(C)c(C)c54)cc3)cc2)C[C@@H]1C", "note": "[Compound 13h, 3-Methoxypropyl 2-((S)-2,3,9-trimethyl-4-(4-((3-(4-(((2S,4R)-2-methyl-1-propionyl-1,2,3,4-tetrahydroquinolin-4-yl)amino)benzamide)propyl)carbamoyl)phenyl)-6H-thieno[3,2-f][1,2,4]triazolo[4,3-a][1,4]diazepin-6-yl)acetate]", "values": [{"measurement": "Activity Attenuation Ratio", "result": 76}, {"measurement": "IC50", "result": 0.0228, "unit": "µM"}]}, {"compound": "CCC(=O)N1c2ccccc2[C@H](N[C@H]2CC[C@H](NC(=O)C#CCNC(=O)[C@H]3CC[C@H](N[C@@H]4C[C@H](C)N(C(=O)CC)c5ccccc54)CC3)CC2)C[C@@H]1C", "note": "(relative stereo) [Compound 9d, (1R,4R)-4-(((2S*,4R*)-2-Methyl-1-propionyl-1,2,3,4-tetrahydroquinolin-4-yl)amino)-N-(4-(((1R,4R)-4-(((2S,4R)-2-methyl-1-propionyl-1,2,3,4-tetrahydroquinolin-4-yl)amino)cyclohexyl)amino)-4-oxobut-2-yn-1-yl)cyclohexane-1-carboxamide]", "values": [{"measurement": "Activity Attenuation Ratio", "result": 348}, {"measurement": "IC50", "result": 0.263, "unit": "µM"}]}, {"compound": "CCC(=O)N1c2ccccc2[C@H](Nc2ccc(C(=O)NCCCNC(=O)c3ccc(N[C@@H]4C[C@H](C)N(C(=O)CC)c5ccccc54)cc3)cc2)C[C@@H]1C", "note": "(relative stereo) [Compound 1a, N,N′-(Propane-1,3-diyl)bis(4-{[(2S*,4R*)-2-methyl-1-propionyl-1,2,3,4-tetrahydroquinolin-4-yl]amino}benzamide)]", "values": [{"measurement": "Activity Attenuation Ratio", "result": 61}, {"measurement": "IC50", "setting": "Homo sapiens", "result": 0.0687, "unit": "µM"}]}, {"compound": "CCC(=O)N1c2ccccc2[C@H](Nc2ccc(NC(=O)N3CCN(C(=O)C4CCC(N[C@@H]5C[C@H](C)N(C(=O)CC)c6ccccc65)CC4)CC3)cc2)C[C@@H]1C", "note": "(stereo partly drawn) [Compound 7p, 4-((1R,4r)-4-(((2S,4R)-2-Methyl-1-propionyl-1,2,3,4-tetrahydroquinolin-4-yl)amino)cyclohexane-1-carbonyl)-N-(4-(((2S,4R)-2-methyl-1-propionyl-1,2,3,4-tetrahydroquinolin-4-yl)amino)phenyl)piperazine-1-carboxamide]", "values": [{"measurement": "Activity Attenuation Ratio", "result": 766}, {"measurement": "IC50", "result": 0.293, "unit": "µM"}]}, {"compound": "CCC(=O)N1c2ccccc2[C@H](Nc2ccc(NC(=O)CCCC(=O)Nc3ccc(N[C@@H]4C[C@H](C)N(C(=O)CC)c5ccccc54)cc3)cc2)C[C@@H]1C", "note": "[Compound 6k, N^1,N^5-Bis(4-(((2S,4R)-2-methyl-1-propionyl-1,2,3,4-tetrahydroquinolin-4-yl)amino)phenyl)glutaramide]", "values": [{"measurement": "Activity Attenuation Ratio", "result": 520}, {"measurement": "IC50", "setting": "Homo sapiens", "result": 0.0312, "unit": "µM"}]}, {"compound": "CCC(=O)N1c2ccccc2[C@H](Nc2ccc(NC(=O)CCCC(=O)NC3CCC(N[C@@H]4C[C@H](C)N(C(=O)CC)c5ccccc54)CC3)cc2)C[C@@H]1C", "note": "(stereo partly drawn) [Compound 7o, N^1-((1R,4r)-4-(((2S,4R)-2-Methyl-1-propionyl-1,2,3,4-tetrahydroquinolin-4-yl)amino)cyclohexyl)-N^5-(4-(((2S,4R)-2-methyl-1-propionyl-1,2,3,4-tetrahydroquinolin-4-yl)amino)phenyl)glutaramide]", "values": [{"measurement": "Activity Attenuation Ratio", "result": 750}, {"measurement": "IC50", "result": 0.397, "unit": "µM"}]}, {"compound": "CCC(=O)N1c2ccccc2[C@H](Nc2ccc(Cn3cc(C(=O)Nc4ccc(N[C@@H]5C[C@H](C)N(C(=O)CC)c6ccccc65)cc4)nn3)cc2)C[C@@H]1C", "note": "[Compound 5j, 1-(4-(((2S,4R)-2-Methyl-1-propionyl-1,2,3,4-tetrahydroquinolin-4-yl)amino)benzyl)-N-(4-(((2S,4R)-2-methyl-1-propionyl-1,2,3,4-tetrahydroquinolin-4-yl)amino)phenyl)-1H-1,2,3-triazolee-4-carboxamide]", "values": [{"measurement": "Activity Attenuation Ratio", "result": 941}, {"measurement": "IC50", "result": 0.0373, "unit": "µM"}]}, {"compound": "CCC(=O)N1c2ccccc2[C@H](Nc2ccc(NC(=O)CCCC(=O)NC3CCN(Cc4cc(O)cc(-c5c(C)noc5C)c4)CC3)cc2)C[C@@H]1C", "note": "[Compound 12c, N^1-(1-(3-(3,5-Dimethylisoxazol-4-yl)-5-hydroxybenzyl)piperidin-4-yl)-N^5-(4-(((2S,4R)-2-methyl-1-propionyl-1,2,3,4-tetrahydroquinolin-4-yl)amino)phenyl)glutaramide]", "values": [{"measurement": "Activity Attenuation Ratio", "result": ">44436"}, {"measurement": "IC50", "setting": "Homo sapiens", "result": "> 10", "unit": "µM"}]}, {"compound": "CCC(=O)N1c2ccccc2[C@H](Nc2ccc(NC(=O)CNC(=O)N[C@H]3CC[C@H](N[C@@H]4C[C@H](C)N(C(=O)CC)c5ccccc54)CC3)cc2)C[C@@H]1C", "note": "[Compound 8j, 2-(3-((1R,4R)-4-(((2S,4R)-2-Methyl-1-propionyl-1,2,3,4-tetrahydroquinolin-4-yl)amino)cyclohexyl)ureido)-N-(4-(((2S,4R)-2-methyl-1-propionyl-1,2,3,4-tetrahydroquinolin-4-yl)amino)phenyl)acetamide]", "values": [{"measurement": "Activity Attenuation Ratio", "result": 767}, {"measurement": "IC50", "result": 0.228, "unit": "µM"}]}, {"compound": "Cc1sc2c(c1C)C(c1ccc(Cl)cc1)=N[C@@H](CC(=O)NCCOCCOCCOCCOCCOCCOCCOCCNC(=O)C[C@@H]1N=C(c3ccc(Cl)cc3)c3c(sc(C)c3C)-n3c(C)nnc31)c1nnc(C)n1-2", "note": "[compound 2, reference compound]", "values": [{"measurement": "Activity Attenuation Ratio", "result": 0.32}, {"measurement": "IC50", "result": 0.0757, "unit": "µM"}]}, {"compound": "CCC(=O)N1c2ccccc2[C@H](Nc2ccc(SCCNC(=O)c3ccc(C4=N[C@@H](CC(=O)OCCN(C)C)c5nnc(C)n5-c5sc(C)c(C)c54)cc3)cc2)C[C@@H]1C", "note": "[Compound 13a, 2-(Dimethylamino)ethyl 2-((S)-2,3,9-trimethyl-4-(4-((2-((4-(((2S,4R)-2-methyl-1-propionyl-1,2,3,4-tetrahydroquinolin-4-yl)amino)phenyl)thio)ethyl)carbamoyl)phenyl)-6H-thieno[3,2-f][1,2,4]triazolo[4,3-a][1,4]diazepin-6-yl)acetate]", "values": [{"measurement": "Activity Attenuation Ratio", "result": 35}, {"measurement": "IC50", "setting": "Homo sapiens", "result": 0.00931, "unit": "µM"}]}, {"compound": "CCC(=O)N1c2ccccc2[C@H](Nc2ccc(NC(=O)CCCC(=O)Nc3ccc(N[C@@H]4C[C@H](C)N(C(=O)CC)c5ccccc54)nc3)cc2)C[C@@H]1C", "note": "[Compound 10k, N^1-(4-(((2S,4R)-2-Methyl-1-propionyl-1,2,3,4-tetrahydroquinolin-4-yl)amino)phenyl)-N^5-(6-(((2S,4R)-2-methyl-1-propionyl-1,2,3,4-tetrahydroquinolin-4-yl)amino)pyridin-3-yl)glutaramide]", "values": [{"measurement": "Activity Attenuation Ratio", "result": 672}, {"measurement": "IC50", "setting": "Homo sapiens", "result": 0.143, "unit": "µM"}]}, {"compound": "CCC(=O)N1c2ccccc2[C@H](Nc2ccc(C(=O)NCCCNC(=O)c3ccc(C4=N[C@@H](CC(=O)OC5CCC(O)CC5)c5nnc(C)n5-c5sc(C)c(C)c54)cc3)cc2)C[C@@H]1C", "note": "(stereo partly drawn) [Compound 13d, 4-Hydroxycyclohexyl 2-((S)-2,3,9-trimethyl-4-(4-((3-(4-(((2S,4R)-2-methyl-1-propionyl-1,2,3,4-tetrahydroquinolin-4-yl)amino)benzamide)propyl)carbamoyl)phenyl)-6H-thieno[3,2-f][1,2,4]triazolo[4,3-a][1,4]diazepin-6-yl)acetate]", "values": [{"measurement": "Activity Attenuation Ratio", "result": 52}, {"measurement": "IC50", "result": 0.0278, "unit": "µM"}]}, {"compound": "CCC(=O)N1c2ccccc2[C@H](Nc2ccc(-n3cc(CNC(=O)c4ccc(Cn5c(CC)cc6c5CCCC6=O)cc4)nn3)cc2)C[C@@H]1C", "note": "[Compound 15f, 4-((2-Ethyl-4-oxo-4,5,6,7-tetrahydro-1H-indol-1-yl)methyl)-N-((1-(4-(((2S,4R)-2-methyl-1-propionyl-1,2,3,4-tetrahydroquinolin-4-yl)amino)phenyl)-1H-1,2,3-triazol-4-yl)methyl)benzamide]", "values": [{"measurement": "Activity Attenuation Ratio", "result": 902}, {"measurement": "IC50", "setting": "Homo sapiens", "result": 0.0283, "unit": "µM"}]}, {"compound": "CCC(=O)N1c2ccccc2[C@H](Nc2ccc(-c3nnc(CNC(=O)C4CCN(Cc5cc(O)cc(-c6c(C)noc6C)c5)CC4)o3)cc2)C[C@@H]1C", "note": "[Compound 12a, 1-(3-(3,5-Dimethylisoxazol-4-yl)-5-hydroxybenzyl)-N-((5-(4-(((2S,4R)-2-methyl-1-propionyl-1,2,3,4-tetrahydroquinolin-4-yl)amino)phenyl)-1,3,4-oxadiazol-2-yl)methyl)piperidine-4-carboxamide]", "values": [{"measurement": "Activity Attenuation Ratio", "result": 693}, {"measurement": "IC50", "setting": "Homo sapiens", "result": 0.354, "unit": "µM"}]}]}
